Experimental data: PMC6283615, “Anilinoquinoline based inhibitors of trypanosomatid proliferation” (PLoS Neglected Tropical Diseases, 2018)
≈ marks a conversion by molar mass, not a printed value. Where two headings read alike, the source gives them in different places.

Assays:
[1] = Rat hepatocyte intrinsic clearance; type: in vitro ADME; conditions: for hepatocyte CLint: hepatocytes
[2] = system: T. cruzi amastigote (Tulahuen strain expressing β-galactosidase); assay: Intracellular T. cruzi assay in 3T3 cells (beta-galactosidase, 96 h); type: cell-based, Trypanosoma cruzi; conditions: read-out: T. cruzi amastigote EC50
Protocol: In a 96-well plate, 5×10^4 3T3 cells in DMEM without phenol red supplemented with 2% FBS were added to each well. Cells were incubated for 2 h to allow for attachment. Compounds were added in triplicates at 50 μM and in serial dilutions 1:2. To each well, 5×10^4 T. cruzi trypomastigotes (Tulahuen strain expressing β-galactosidase) were added and incubated at 37°C, 5% CO2 for 96 h. Following incubation, 50 μL of 500 μM chlorophenol Red-β-D-galactopyranoside (CPRG) in phosphate-buffered saline with 0.5% NP40 was added to each well and incubated at 37°C, 5% CO2 for 4 h. Absorbance was read at 590–595 nm.

L. major amastigote = assay: L. major intracellular amastigote luciferase assay in RAW 264.7 macrophages; type: cell-based, Leishmania major; conditions: intracellular amastigotes in RAW 264.7 macrophages, 96 h
Protocol: Amastigote assays were performed using pLEXSY-hyg2-luciferase L. major transfected promastigotes and the murine RAW 264.7 macrophage cell line (ATCC TIB-71, Manassas, VA). Briefly, luciferase-expressing promastigotes of each Leishmania species were generated by adding a luciferase encoding region to the pLEXSY-hyg2 vector (Jena Biosciences, Germany) as described. One μg of the linearized pLEXSY-hyg2-luciferase vector were electroporated (480 V, 13 Ω, and 500 μF) into 4×10^7 Leishmania promastigotes. Selection for stable promastigote transfectants was carried out using hygromycin B (100 μg/mL). RAW 264.7 macrophages were maintained in growth medium (Dulbecco’s Modified Eagle’s Medium supplemented with heat-inactivated 10% FBS (Life Technologies)). Cells were harvested and resuspended in growth medium at 2.0×10^5 cells/mL, and 1×10^4 cells/well were dispensed (final volume 50 μL) in each well of a 384 well tissue-culture treated white plate using a EVO Freedom liquid handling system (Tecan, Durham, NC). Plates were incubated at 37°C in 5% CO2 for 24 h after which the culture medium was removed from each well using the EVO Freedom liquid handler. Metacyclic phase pLEXSY-hyg2-luciferase-Leishmania promastigotes (MOI = 1:10 L. major) were added to each assay plate well and allowed to infect the RAW 264.7 macrophages. After an overnight incubation, the growth medium was aspirated and each well was washed three times with 40 μL of fresh growth medium to remove non-internalized promastigotes. After the third wash, 69.2 μL of growth medium was added to each well. Compound dilutions (final concentration ranges 0.5–10,000 ng/mL) were generated and dispensed using the liquid handling system. Compound treated plates were incubated at 37°C in 5% CO2 for 96 h. After incubation, 7.5 μL of a luciferin solution (Caliper Life Science, Waltham, MA) diluted to 150 μg/mL was added to each well, and the plates were incubated for 30 min at 37°C in the dark. Data were captured using an Infinite M200 plate reader (Tecan). EC50s were generated for each concentration response test using GraphPad Prism software 6.0.

[3] = system: T. b. brucei (strain 427); assay: T. b. brucei proliferation assay (PrestoBlue, 48 h); type: cell-based, Trypanosoma brucei brucei
Protocol: The assay was performed following a previously reported procedure. Briefly, in a 96-well plate, compounds were added in triplicates at 50 μM and in serial dilutions 1:2 in HMI-9 medium. To each well, 100 μL of 2.5×10^3 T. b. brucei (strain 427, received as a gift from Dr. C. C. Wang at UCSF) in HMI-9 medium was were added and incubated at 37°C, 5% CO2 for 48 h. Following incubation, 20 μL of PrestoBlue were added to each well and incubated for additional 4 h. Fluorescence was read at 530 nm excitation and 590 nm emission.

Aqueous solubility = type: physicochemical
[4] = Human liver microsome intrinsic clearance; type: in vitro ADME; conditions: for microsomal CLint: liver microsomes
LogD7.4 = type: physicochemical; conditions: pH 7.4
HepG2 cells = assay: Drug toxicity to HepG2 cells (MTT, 48 h); type: cell-based, human; conditions: tested concentration ranges based on compound solubility
Protocol: HepG2 cells were cultured in complete Minimal Essential Medium prepared by supplementing MEM with 0.19% sodium bicarbonate, 10% heat inactivated FBS, 2 mM L-glutamine, 0.1 mM MEM non-essential amino, 0.009 mg/mL insulin, 1.76 mg/mL bovine serum albumin, 20 units/mL penicillin–streptomycin, and 0.05 mg/mL gentamycin. HepG2 cells cultured in complete MEM were first washed with 1× Hank’s Balanced Salt Solution (Invitrogen #14175095), trypsinized using a 0.25% trypsin/EDTA solution, assessed for viability using trypan blue, and resuspended at 250,000 cells/mL. Using a Tecan EVO Freedom robot, 38.3 μL of cell suspension were added to each well of clear, cell culture-treated 384-well microtiter plates for a final concentration of 9570 liver cells per well, and plated cells were incubated overnight in 5% CO2 at 37°C. Drug plates were prepared with the Tecan EVO Freedom using sterile 96 well plates containing twelve duplicate 1.6-fold serial dilutions of each test compound suspended in DMSO. 4.25 μL of diluted test compound was then added to the 38.3 μL of media in each well providing a […] final dilution of compound. Compounds were tested from a range of 57 ng/mL to 10,000 ng/mL for all assays. Mefloquine was used as a plate control for all assays with a concentration ranging from 113 ng/mL to 20,000 ng/mL. After a 48 h incubation period, 8 μL of a 1.5 mg/mL solution of MTT diluted in complete MEM media was added to each well. All plates were subsequently incubated in the dark for 1 h at room temperature. After incubation, the media and drugs in each well was removed by shaking the plate over sink, and the plates were left to dry in a fume hood for 15 mins. Next, 30 μL of isopropanol acidified by addition of HCl at a final concentration of 0.36% was added to dissolve the formazan dye crystals created by reduction of MTT. Plates are put on a 3-D rotator for 15–30 mins. Absorbance was determined in all wells using a Tecan iControl 1.6 Infinite plate reader.

[5] = Human plasma protein binding; type: in vitro ADME; conditions: for fraction unbound: read-out: Human PPB (converted)
NIH/3T3 cells = assay: Drug toxicity to 3T3 cells (Alamar Blue, 96 h); type: cell-based
Protocol: In a 96-well plate, 5×10^4 NIH/3T3 (ATCC CRL-1658) cells (purchased from ATCC) in DMEM without phenol red supplemented with 2% FBS were added to each well. Cells were incubated for 2 h to allow for attachment. Compounds were added in triplicates at 200 μM and in serial dilutions 1:2 and incubated at 37°C, 5% CO2 for 96 h. […] Following incubation, 10 μL of Alamar Blue (ThermoFisher) were added to each well and cells incubated at 37°C, 5% CO2 for 4 h. Absorbance was read at 590–595 nm.

[6] = intracellular in 3T3 cells, 96 h
[7] = Trypanosoma cruzi, TULAHUEN, NIH3T3, 96 h

Compound	Rat Hepatocyte CLint [1]	EC50 [2, 6]	EC50 (L. major amastigote)	EC50 [3]	solubility (Aqueous solubility)	Human Liver Microsome CLint [4]	LogD7.4 (LogD7.4)	HepG2 TC50 (HepG2 cells)	Human PPB [5]	3T3 TC50 (NIH/3T3 cells)	hepatocyte CLint [1]	fraction unbound [5]	EC50 [2, 7]	EC50 (L. major amastigote; Leishmania major, RAW264.7)	EC50 ([3]; Trypanosoma brucei)	microsomal CLint [4]	logD (LogD7.4)
c1cnc(Nc2ccnc3cc(-c4cn[nH]c4)ccc23)cn1 [NEU-2088]	5 μL/min/10^6 cells	> 50 µM	3 µM	0.29 µM	1 µM (≈ 0.288 µg/mL)	130 µL/min/mg	2.6	4.5 µM	–	–	–	–	–	–	–	–	–
COc1ccc(Nc2ccnc3cc(-c4cn[nH]c4)ccc23)cc1Cl [NEU-2087]	5 μL/min/10^6 cells	> 50 µM	29 µM	0.91 µM	2 µM (≈ 0.702 µg/mL)	8 µL/min/mg	3.5	23 µM	97%	–	–	–	–	–	–	–	–
Cc1cc(Nc2ccc3c(Nc4cnccn4)ccnc3c2)on1 [NEU-2150]	–	21 µM	31 µM	29 µM	–	–	–	48 µM	–	> 100 µM	–	–	–	–	–	–	–
COc1ccc(Nc2ccnc3cc(-c4cnn(C)c4)ccc23)cc1Cl [NEU-2130]	–	1.9 µM	29 µM	2.6 µM	–	–	–	44 µM	–	> 100 µM	–	–	–	–	–	–	–
CN1CCN(S(=O)(=O)c2cccc(-c3ccc4c(Nc5ccc(OCc6cccc(F)c6)c(Cl)c5)ccnc4c3)c2)CC1 [Compound 13]	–	–	–	–	< 1 µM	–	–	–	–	–	24 µL/min/1e6 cells	< 0.01	> 50 µM	0.2 µM	0.48 µM	110 µL/min/mg	4.8
CN1CCN(S(=O)(=O)c2ccc(-c3ccc4c(Nc5cccnc5)ccnc4c3)cc2)CC1 [NEU-1019]	–	> 50 µM	22 µM	5.4 µM	175 µM (≈ 80.4 µg/mL)	–	2	36 µM	85%	> 100 µM	–	–	–	–	–	–	–
c1coc(-c2ccc3c(Nc4cnccn4)ccnc3c2)c1 [NEU-2131]	–	4.7 µM	35 µM	4.8 µM	6 µM (≈ 1.73 µg/mL)	160 µL/min/mg	3.8	53 µM	98%	> 100 µM	–	–	–	–	–	–	–
CN1CCN(S(=O)(=O)c2ccc(-c3ccc4c(Nc5ccc6[nH]nnc6c5)ccnc4c3)cc2)CC1 [NEU-1018]	–	> 50 µM	17 µM	> 50 µM	< 1 µM	–	3.4	28 µM	98%	> 100 µM	–	–	–	–	–	–	–
CN1CCN(S(=O)(=O)c2ccc(-c3ccc4c(Nc5ccnnc5)ccnc4c3)cc2)CC1 [NEU-1020]	–	> 50 µM	22 µM	> 50 µM	> 1000 µM	–	-0.5	36 µM	57%	> 100 µM	–	–	–	–	–	–	–
Cc1nnc(Nc2ccnc3cc(-c4ccc(S(=O)(=O)N5CCN(C)CC5)cc4)ccc23)nc1C [NEU-1028]	–	> 50 µM	4 µM	> 50 µM	1.5 µM (≈ 0.734 µg/mL)	–	3.4	6.4 µM	93%	> 100 µM	–	–	–	–	–	–	–
Cc1cc(Nc2ccnc3cc(-c4ccc(S(=O)(=O)N5CCN(C)CC5)cc4)ccc23)sn1 [NEU-1023]	–	25 µM	8.4 µM	0.6 µM	< 1 µM	–	4.2	35 µM	99%	> 100 µM	–	–	–	–	–	–	–
COc1ccc(Nc2ccnc3cc(Nc4nccc(N5CCN(C)CC5)n4)ccc23)cc1Cl [NEU-2090]	7.2 μL/min/10^6 cells	> 20 µM	2.3 µM	0.35 µM	570 µM (≈ 271 µg/mL)	–	3.3	7.6 µM	99%	–	–	–	–	–	–	–	–
CN1CCN(S(=O)(=O)c2ccc(-c3ccc4c(Nc5cnc(C#N)cn5)ccnc4c3)cc2)CC1 [NEU-1024]	–	> 50 µM	19 µM	3 µM	< 1 µM	–	3.7	31 µM	97%	> 100 µM	–	–	–	–	–	–	–
CN1CCN(S(=O)(=O)c2ccc(-c3ccc4c(Nc5ncc(Cl)cn5)ccnc4c3)cc2)CC1 [NEU-1025]	–	8.8 µM	8.7 µM	1.5 µM	4.8 µM (≈ 2.38 µg/mL)	–	4.1	31 µM	99%	11 µM	–	–	–	–	–	–	–
CN1CCN(S(=O)(=O)c2ccc(-c3ccc4c(Nc5ccc(C(F)(F)F)nc5)ccnc4c3)cc2)CC1 [Compound 12]	–	–	–	–	–	–	–	–	–	–	260 µL/min/1e6 cells	0.02	5.4 µM	6.2 µM	0.7 µM	390 µL/min/mg	4.4
CN1CCN(S(=O)(=O)c2ccc(-c3ccc4c(Nc5ccc(OC(F)(F)F)cc5)ccnc4c3)cc2)CC1 [Compound 10]	–	–	–	–	–	–	–	–	–	–	79 µL/min/1e6 cells	< 0.01	1.4 µM	0.78 µM	0.27 µM	280 µL/min/mg	4.5
Cc1nnc(Nc2ccc3c(Nc4cnccn4)ccnc3c2)nc1C [NEU-2151]	–	> 50 µM	26 µM	2.3 µM	–	–	–	22 µM	–	> 100 µM	–	–	–	–	–	–	–
